Counter-ions that a name gives are not always drawn.
Columns and labels:
[1] = biological target: T1, human CYP11B2 (Homo sapiens, UniProt P19099); experiment: G-402 cellular enzyme assay, human CYP11B2 (aldosterone release, HTRF); format: cell-based; conditions: G-402 cells expressing human CYP11B2; 1 μM Deoxycorticosterone
T1 construct: expressed in transfected cells
T1 sequence (P19099 25-503): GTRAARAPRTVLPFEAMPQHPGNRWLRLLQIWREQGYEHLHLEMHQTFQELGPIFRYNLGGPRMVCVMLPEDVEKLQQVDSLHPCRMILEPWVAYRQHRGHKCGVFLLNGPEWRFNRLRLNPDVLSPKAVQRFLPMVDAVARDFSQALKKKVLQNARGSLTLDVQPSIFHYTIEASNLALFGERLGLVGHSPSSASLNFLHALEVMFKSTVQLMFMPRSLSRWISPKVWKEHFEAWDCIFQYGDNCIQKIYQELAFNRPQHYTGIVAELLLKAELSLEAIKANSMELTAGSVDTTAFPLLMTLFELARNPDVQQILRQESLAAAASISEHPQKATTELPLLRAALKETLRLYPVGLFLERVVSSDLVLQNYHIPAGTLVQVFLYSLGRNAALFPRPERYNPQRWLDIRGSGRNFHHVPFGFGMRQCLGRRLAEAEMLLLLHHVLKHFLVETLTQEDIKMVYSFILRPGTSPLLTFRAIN
In short: (§1)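 G-402 cells stably expressing human CYP11B2 or CYP11B1, in DMEM/F12 with 2.5% charcoal-treated FCS, were incubated 16 h with compound plus 1 μM deoxycorticosterone (CYP11B2) or 1 μM deoxycortisol (CYP11B1). Aldosterone or cortisol in the supernatant measured by HTRF; EC50 from a 4-parameter MMF fit.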

[2] = biological target: T2, human CYP11B1 (Homo sapiens, UniProt P15538); experiment: G-402 cellular enzyme assay, human CYP11B1 (cortisol release, HTRF); format: cell-based; conditions: G-402 cells expressing human CYP11B1; 1 μM Deoxycortisol
T2 construct: expressed in transfected cells
T2 sequence (P15538 25-503): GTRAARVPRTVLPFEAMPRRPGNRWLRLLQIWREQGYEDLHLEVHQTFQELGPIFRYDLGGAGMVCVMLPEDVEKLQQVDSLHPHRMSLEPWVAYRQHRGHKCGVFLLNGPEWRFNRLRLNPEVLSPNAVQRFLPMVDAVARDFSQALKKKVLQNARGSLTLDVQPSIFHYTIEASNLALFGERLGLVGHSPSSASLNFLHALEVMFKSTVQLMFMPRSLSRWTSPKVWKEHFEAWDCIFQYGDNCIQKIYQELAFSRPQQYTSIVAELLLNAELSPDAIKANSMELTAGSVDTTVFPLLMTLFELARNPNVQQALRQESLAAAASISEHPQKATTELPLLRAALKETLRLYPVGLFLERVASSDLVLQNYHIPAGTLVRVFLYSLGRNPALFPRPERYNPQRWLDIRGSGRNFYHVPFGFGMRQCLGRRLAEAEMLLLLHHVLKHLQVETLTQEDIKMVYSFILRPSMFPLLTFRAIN
In short: as §1

Cc1c(-c2ccc3c(c2)CCC(=O)N3C)cncc1C(C)NC(=O)c1ncccc1Cl (single isomer, unassigned) [Example 241, 3-Chloro-pyridine-2-carboxylic acid {(R or S)-1-[4-methyl-5-(1-methyl-2-oxo-1,2,3,4-tetrahydro-quinolin-6-yl)-pyridin-3-yl]-ethyl}-amide]
EC50 [1]: 0.007 µM
EC50 [2]: 0.251 µM

CN1C(=O)CCc2cc(-c3cncc(O[C@H]4CCN(C(=O)C5CC5)C4)c3)ccc21 [Example 76, 6-[5-((S)-1-Cyclopropanecarbonyl-pyrrolidin-3-yloxy)-pyridin-3-yl]-1-methyl-3,4-dihydro-1H-quinolin-2-one]
EC50 [1]: 0.023 µM
EC50 [2]: 0.452 µM

CN1C(=O)CCc2cc(-c3cncc(CNC(=O)c4cnn(C)c4)c3)c(F)cc21 [Example 175, 1-Methyl-1H-pyrazole-4-carboxylic acid [5-(7-fluoro-1-methyl-2-oxo-1,2,3,4-tetrahydro-quinolin-6-yl)-pyridin-3-ylmethyl]-amide]
EC50 [1]: 0.007 µM
EC50 [2]: 0.688 µM

Cc1noc(C)c1C(=O)N(C)Cc1cncc(-c2ccc3c(c2)CCC(=O)N3C)c1 [Example 188, 3,5-Dimethyl-isoxazole-4-carboxylic acid methyl-[5-(1-methyl-2-oxo-1,2,3,4-tetrahydro-quinolin-6-yl)-pyridin-3-ylmethyl]-amide]
EC50 [1]: 0.014 µM
EC50 [2]: 0.572 µM

CCS(=O)(=O)NCc1cncc(-c2cc(Cl)c3c(c2)CCC(=O)N3)c1 [Example 203, Ethanesulfonic acid [5-(8-chloro-2-oxo-1,2,3,4-tetrahydro-quinolin-6-yl)-pyridin-3-ylmethyl]-amide]
EC50 [1]: 0.083 µM
EC50 [2]: 4.96 µM

CN1C(=O)CCc2cc(-c3cncc(CNS(=O)(=O)c4ccc(Cl)c(Cl)c4)c3)ccc21 [Example 156, 3,4-Dichloro-N-[5-(1-methyl-2-oxo-1,2,3,4-tetrahydro-quinolin-6-yl)-pyridin-3-ylmethyl]-benzenesulfonamide]
EC50 [1]: 0.155 µM
EC50 [2]: 1.37 µM

CN(Cc1cncc(-c2cc3c4c(c2)CCN4C(=O)CC3)c1)C(=O)c1ncccc1Cl [Example 237, 3-Chloro-pyridine-2-carboxylic acid methyl-[5-(4-oxo-1,2,5,6-tetrahydro-4H-pyrrolo[3,2,1-ij]quinolin-8-yl)-pyridin-3-ylmethyl]-amide]
EC50 [1]: 0.008 µM
EC50 [2]: 0.143 µM

CN1C(=O)CCc2cc(-c3cncc(OC4CNC4)c3)ccc21 [Example 70, 6-[5-(Azetidin-3-yloxy)-pyridin-3-yl]-1-methyl-3,4-dihydro-1H-quinolin-2-one hydrochloride]
EC50 [1]: 0.202 µM
EC50 [2]: 15.6 µM

Cc1c(-c2cc3c(cc2F)N(C)C(=O)CC3)cncc1C(C)N (single isomer, unassigned) [Example 253, 6-[5-((R or S)-1-Amino-ethyl)-4-methyl-pyridin-3-yl]-7-fluoro-1-methyl-3,4-dihydro-1H-quinolin-2-one hydrochloride]
EC50 [1]: 0.193 µM
EC50 [2]: 4.48 µM

CCS(=O)(=O)N[C@H]1CC[C@H](Oc2cncc(-c3ccc4c(c3)CCC(=O)N4C)c2)CC1 [Example 172, Ethanesulfonic acid {(trans)-4-[5-(1-methyl-2-oxo-1,2,3,4-tetrahydro-quinolin-6-yl)-pyridin-3-yloxy]-cyclohexyl}-amide]
EC50 [1]: 0.001 µM
EC50 [2]: 0.069 µM

CC(N[S@+]([O-])C(C)(C)C)c1cncc(-c2ccc3c(c2)CCC(=O)N3C)c1 (single isomer, unassigned) [Example 57, (R)-2-Methyl-propane-2-sulfinic acid {(R or S)-1-[5-(1-methyl-2-oxo-1,2,3,4-tetrahydro-quinolin-6-yl)-pyridin-3-yl]-ethyl}-amide]
EC50 [1]: 0.026 µM
EC50 [2]: 0.393 µM

Cc1ocnc1C(=O)NCc1cncc(-c2ccc3c(c2)CCC(=O)N3C)c1 [Example 112]
EC50 [1]: 0.006 µM
EC50 [2]: 0.151 µM

— patent publication US9260408B2, “Dihydroquinoline-2-one derivatives” (Hoffmann-La Roche Inc., priority 2011, dated 2016)
